“Also recorded” adds a separate entry of the source. Where a SMILES comes first, the peptide text is derived from it.

The first series concerns ComREXTRA (ComR-EpoR TM-IL-6RB). Put plainly: SEAP reporter assay, ComREXTRA-based synthetic receptor, transiently transfected HEK-293T. The format is cell-based, Streptococcus vestibularis. As to conditions: IL-6 50 ng/mL or XIP 50 μmol/L, n = 4. As to the method: Human embryonic kidney cells (HEK‐293T, ATCC: CRL‐11268), human telomerase‐immortalized mesenchymal stem cells (hMSC‐TERT),^[ [56] ^] human fibrosarcoma cells (HT‐1080, ATCC: CCL‐121), human cervical adenocarcinoma cells (HeLa, ATCC: CCL‐2), Chinese hamster ovary cells (CHO‐K1, ATCC: CCL‐61), baby hamster kidney cells (BHK‐21, ATCC: CCL‐10), and human liver cancer cells (Hep G2, ATCC: CRL‐11997) were cultured in Dulbecco's modified Eagle's medium (DMEM, cat. no. 52100–39, Thermo Fisher Scientific) containing 10% fetal bovine serum (FBS, cat. no. F7524, lot no. 022M3395, Sigma‐Aldrich) and 1% (v/v) streptomycin/penicillin (cat. no. L0022, Biowest). All mammalian cells were grown at 37 °C in a humidified atmosphere containing 5% CO2. For all transient transfections, 15 000 cells were seeded per well of a 96‐well plate (cat. no. 3599, Corning Inc. Life Sciences) overnight. Cells were transfected by mixing 100 ng of DNA and polyethyleneimine (PEI, 24765‐2, Polysciences) in a ratio of 1:4. […] The cell density was calculated using a cell counter (CellDrop BF Brightfield Cell Counter, DeNovix Inc.)
SEAP reporter levels in cell culture supernatants were quantified using a colorimetric assay. […] Absorbance at 405 nm was recorded using a plate reader (Tecan Spark, Tecan Group Ltd., Switzerland) for 30 min at 37 °C to determine the SEAP levels.
A general note: In a reporter assay the amount or activity of a reporter protein is the signal.
In the case of interleukin 6 [IL-6], the “SEAP induction of XIPEXTRA system” value is recorded as “ns”.

Staying with this series, now noted: IL-6 50 ng/mL or XIP 50 μmol/L, n = 4, listed as IL‐6.
Regarding interleukin 6 [IL-6], the “SEAP induction of XIPEXTRA system” value is on record as “no apparent induction; also recorded: no detectable activation”.

Another series has as its system ComREXTRA in HEK-XIP cells. As to the kind of experiment: SEAP expression by monoclonal cell line HEK-XIP / monoclonal clones. It counts as cell-based, Streptococcus vestibularis. As to conditions: peptides from human sequence BLAST (Supplementary Figure 14c,d), 24 h, n = 4. As to the method: HEK‐293T or hMSC‐TERT cells were seeded in a 24‐well plate at a density of 5× 10^4 cells per well for 24 h. Then the cells were co‐transfected with 1000 ng of plasmid mixture containing pJH1611 (ITR‐OSTAT3‐SEAP‐P2A‐mINS‐pA:PRPBSA‐ECFP‐P2A‐PuroR‐pA‐ITR), pJH1618 (ITR‐PhCMV‐STAT3‐pA:PRPBSA‐ECFP‐P2A‐PuroR‐pA‐ITR), pJH1632 (ITR‐PSV40‐SP‐ComRK155R/F158Y/R186S/S222N/C17S‐EpoR‐IL‐6RB‐pA: PhCMV‐ZeoR‐P2A‐mRuby‐pA‐ITR) and the Sleeping Beauty transposase pJH42 (PhCMV‐SB100X‐pA)^[ [6], [44] ^] at the molar ratio of 2:10:50:6. After 24 h of transfection, the cells were transferred into the medium containing 0.5 µg ml^−1 puromycin, 5 µg ml^−1 blasticidin, and 100 µg ml^−1 of zeocin for antibiotic selection for three days. Then the polyclonal population of engineered cells was suspended in DMEM medium and separated by fluorescence‐activated cell sorting (FACS, BD FACS ARIA FUSION, BD Biosciences) using yPET (517/530), mRuby (558/605), and iRFP (690/713) fluorescence. The triple‐positive population was isolated into single cells and further cultured in 96‐well plates in medium containing the three selection antibiotics. After two weeks of clonal expansion, monoclonal cell lines were screened by the addition of XIP and the best‐in‐class cell line was selected for follow‐up experiments. Fluorescence‐based flow cytometry was performed to confirm triple‐positive fluorescence for the best‐in‐class cell line.
SEAP reporter levels in cell culture supernatants were quantified using a colorimetric assay. In brief, 20 µl of cell culture supernatant was mixed with 80 µl of PBS buffer (cat. no. 14190144, ThermoFisher) and heat‐inactivated at 65 °C for 30 min. Then 80 µl of 2x SEAP assay buffer (20 mM homoarginine, 1 mM MgCl2, 21% diethanolamine, pH 9.8) was mixed with 20 µl of substrate solution, and 100 µl of the buffer‐substrate mixture was added to 100 µl of the diluted heat‐inactivated sample. Absorbance at 405 nm was recorded using a plate reader (Tecan Spark, Tecan Group Ltd., Switzerland) for 30 min at 37 °C to determine the SEAP levels.
As for “RPFHFMIY [Align15-20_RPFHFMIY, short peptide based on conserved human motif]”, the “SEAP level vs non-induced (significance)” value is listed as “ns”. Regarding “VPYFYY [Align16_VPYFYY, short peptide based on conserved human motif]”, the “SEAP level vs non-induced (significance)” value is listed as “ns”. The same measure, in the same setting: as for “RAPKFMIY [Align14_RAPKFMIY, short peptide based on conserved human motif]”, the entry is “ns”; as for “VPYFYYY [Align15_VPYFYYY, short peptide based on conserved human motif]”, “ns”.

As for “VPFYYYY [Align5-7_VPFYYYY, short peptide based on conserved human motif]”, the “SEAP level vs non-induced (significance)” value is reported as “ns”.

With “RPFFYYYY [Align3-4_RPFFYYYY, short peptide based on conserved human motif]”, the “SEAP level vs non-induced (significance)” value is on record as “ns”. Take “RPFFYY [Align10-12_RPFFYY, short peptide based on conserved human motif]”: the “SEAP level vs non-induced (significance)” value is “ns”. On the same count and under the same terms, as for “VPFFYYYY [Align1-2_VPFFYYYY, short peptide based on conserved human motif]”, the entry is “ns”; as for “VPFFMIIC [Align1-9_VPFFMIIC, short peptide based on conserved human motif]”, “ns”. The same measure, in the same setting: as for “VPFYYY [Align8-9/17_VPFYYY, short peptide based on conserved human motif]”, the entry is “ns”. Still for that read-out and setting: as for “DPFFYY [Align18_DPFFYY, short peptide based on conserved human motif]”, the entry is “ns”. On to “APFFYY [Align19_APFFYY, short peptide based on conserved human motif]”, for which the “SEAP level vs non-induced (significance)” value is on record as “ns”. As for “PPFFYY [Align14/20_PPFFYY, short peptide based on conserved human motif]”, the “SEAP level vs non-induced (significance)” value is listed as “ns”. Same read-out and setting: as for “LPFFMIL [Align10-13_LPFFMIL, short peptide based on conserved human motif]”, the entry is “ns”.

The same series, now with this note: specificity / orthogonality screening, 24 h, vs non-induced control.
On to BAM8‐22 [reference compound], for which the “SEAP induction in HEK-XIP cells (result in words)” value is given as “none of them displayed inducing activity”. The same measure, in the same setting: as for VPFFMYY [ID1], the entry is “significant fold inductions”; as for C peptide [reference compound], “none of them displayed inducing activity”.

In another series the test system is engineered mammalian cells. Put plainly: Resazurin-based cell viability assay. As to conditions: 50 and 250 µmol/L, 24 h, n = 4. As to the method:
Cells were incubated with resazurin (cat. no. R7017, Sigma‐Aldrich, USA) at a concentration of 50 µg ml^−1 for 2 h. Then fluorescence was assayed with a plate reader (Tecan Spark, Tecan Group Ltd., Switzerland) at excitation and emission wavelengths of 540 and 590 nm, respectively. The fluorescence intensity of non‐induced cells was set to 100%.
On the technique in general: The colour change of resazurin is a common sign of viable cells or microbes.
Take `CC[C@H](C)[C@H](NC(=O)[C@H](CCSC)NC(=O)[C@H](Cc1ccccc1)NC(=O)[C@H](Cc1ccc(O)cc1)NC(=O)[C@@H]1CCCN1C(=O)[C@@H](N)C(C)C)C(=O)N[C@@H](Cc1ccc(O)cc1)C(=O)N[C@@H](Cc1ccc(O)cc1)C(=O)O` [RE10] (H-VPYFMIYY-OH): the HEK-XIP cell viability entry is given as “ns”.

As for APYFMIYY [RE11], the HEK-XIP cell viability result is on record as “ns”. On to `CSCC[C@H](NC(=O)[C@H](Cc1ccccc1)NC(=O)[C@H](Cc1ccc(O)cc1)NC(=O)[C@@H]1CCCN1C(=O)[C@H](C)N)C(=O)NCC(=O)N[C@@H](Cc1ccc(O)cc1)C(=O)N[C@@H](Cc1ccc(O)cc1)C(=O)O` [RE12] (H-APYFMGYY-OH), for which the HEK-XIP cell viability result is “ns”.

The values above are taken from article PMC11267282, “Ultrashort‐Peptide‐Responsive Gene Switches for Regulation of Therapeutic Protein Expression in Mammalian Cells” (Advanced Science, 2024).
